Laboratory results reported in US7915282B2, “C2-phenyl-substituted cyclic keto-enols used as pesticides and herbicides” (Bayer Aktiengesellschaft, priority 2000, dated 2011).

Tests used:
Type in all cases: in vivo
[1] = system: green rice leaf hopper (Nephotettix cincticeps); assay: Nephotettix test; settings: active compound concentration of 1000 ppm; after 6 days; rice seedlings dipped
Description: [table] To produce a suitable preparation of active compound, 1 part by weight of active compound is mixed with the stated amounts of solvent and emulsifier, and the concentrate is diluted with emulsifier-containing, water to the desired concentration. Rice seedlings (Oryza sativa) are treated by being dipped into the preparation of active compound of the desired concentrated and are populated with the green rice leaf hopper (Nephotettix cincticeps) while the leaves are still moist. After the desired period of time, the kill in % is determined. 100% means that all leaf hoppers have been killed; 0% means that none of the leaf hoppers have been killed.

Setaria [2] = assay: Post-emergence test; settings: after three weeks
Description: (§1) [table] To produce a suitable preparation of active compound, 1 part by weight of active compound is mixed with the stated amount of solvent, the stated amount of emulsifier is added and the concentrate is diluted with water to the desired concentration. Test plants of a height of 5-15 cm are sprayed with the preparation of active compound such that the particular amounts of active compound desired are applied per unit area. The concentration of the spray liquor is chosen such that the particular amount of active compound desired is applied in 1000 l of water/ha. After three weeks, the degree of damage to the plants is rated in % damage in comparison to the development of the untreated control. The figures denote: [table]

Digitaria [3] = assay: Post-emergence test; settings: after three weeks
Description: as §1

Galium = assay: Post-emergence test; settings: 125 g ai/ha, after three weeks
Description: as §1

Oilseed rape = assay: Post-emergence test; settings: 125 g ai/ha, after three weeks
Description: as §1

Lolium [4] = assay: Post-emergence test; settings: after three weeks
Description: as §1

Sugar beet [5] = assay: Post-emergence test; settings: after three weeks
Description: as §1

Sorghum = assay: Post-emergence test; settings: after three weeks
Description: as §1

[6] = system: larvae of the mustard beetle (Phaedon cochleariae); assay: Phaedon larvae test; settings: active compound concentration of 1000 ppm; after 7 days; cabbage leaves dipped
Description: (§2) [table] To produce a suitable preparation of active compound, 1 part by weight of active compound is mixed with the stated amounts of solvent and emulsifier, and the concentrate is diluted with emulsifier-containing water to the desired concentration. Cabbage leaves (Brassica oleracea) are treated by being dipped into the preparation of active compound of the desired concentration and are populated with larvae of the mustard beetle (Phaedon cochleariae) while the leaves are still moist. After the desired period of time, the kill in % is determined. 100% means that all beetle larvae have been killed; 0% means that none of the beetle larvae have been killed.

Soya bean [7] = assay: Post-emergence test; settings: 125 g ai/ha, after three weeks
Description: as §1

Setaria [8] = assay: Pre-emergence test; settings: after three weeks
Description: (§3) [table] To produce a suitable preparation of active compound, 1 part by weight of active compound is mixed with the stated amount of solvent, the stated amount emulsifier is added and the concentrate is diluted with water to the desired concentration. Seeds of the test plants are sown in normal soil. After about 24 hours, the soil is sprayed with the preparation of active compound such that the particular amounts of active compound desired are applied per unit area. The concentration of the spray liquor is chosen such that the particular amounts of active compound desired are applied in 1000 l of water/ha. After three weeks, the degree of damage to the plants is rated in % damage in comparison to the development of the untreated controls. The figures denote: [table]

Echinochloa [9] = assay: Pre-emergence test; settings: 60 g ai/ha, after three weeks
Description: as §3

Lolium [10] = assay: Pre-emergence test; settings: after three weeks
Description: as §3

Wheat [11] = assay: Pre-emergence test; settings: 60 g ai/ha, after three weeks
Description: as §3

Alopecurus [12] = assay: Pre-emergence test; settings: after three weeks
Description: as §3

Soya bean [13] = assay: Pre-emergence test; settings: after three weeks
Description: as §3

Chenopodium = assay: Pre-emergence test; settings: 60 g ai/ha, after three weeks
Description: as §3

Echinochloa [14] = assay: Post-emergence test; settings: 60 g ai/ha, after three weeks
Description: as §1

Cotton = assay: Post-emergence test; settings: 60 g ai/ha, after three weeks
Description: as §1

[15] = system: caterpillars of the owlet moth (Plutella xylostella); assay: Plutella test; settings: active compound concentration of 1000 ppm; after 7 days; cabbage leaves dipped
Description: as §2, with “caterpillars” for “larvae”, “owlet moth (Plutella xylostella)” for “mustard beetle (Phaedon cochleariae)”, “caterpillars” for “beetle larvae”

Maize = assay: Pre-emergence test; settings: after three weeks
Description: as §3

Sugar beet [16] = assay: Pre-emergence test; settings: after three weeks
Description: as §3

Avena fatua [17] = assay: Pre-emergence test; settings: after three weeks
Description: as §3

Bromus = assay: Pre-emergence test; settings: after three weeks
Description: as §3

Ipomoea = assay: Post-emergence test; settings: 125 g ai/ha, after three weeks
Description: as §1

Alopecurus [18] = assay: Post-emergence test; settings: after three weeks
Description: as §1

Avena fatua [19] = assay: Post-emergence test; settings: after three weeks
Description: as §1

[20] = system: greenhouse red spider mite (Tetranychus urticae); assay: Tetranychus test (OP-resistant/dip treatment); settings: active compound concentration of 1000 ppm; after 7 days; infested bean plants dipped
Description: [table] To produce a suitable preparation of active compound, 1 part by weight of active compound is mixed with the stated amounts of solvent and emulsifier, and the concentrate is diluted with emulsifier-containing water to the desired concentration. Bean plants (Phaseolus vulgaris) which are heavily infested by all stages of the greenhouse red spider mite (Tetranychus urticae) are dipped into a preparation of active compound of the desired concentration. After the desired period of time, the effect in % is determined. 100% means that all spider mites have been killed; 0% means that none of the spider mites have been killed.

Veronica = assay: Pre-emergence test; settings: 125 g ai/ha, after three weeks
Description: as §3

Digitaria [21] = assay: Pre-emergence test; settings: 125 g ai/ha, after three weeks
Description: as §3

[22] = system: caterpillars of the army worm (Spodoptera frugiperda); assay: Spodoptera frugiperda test; settings: active compound concentration of 1000 ppm; after 7 days; cabbage leaves dipped
Description: as §2, with “caterpillars” for “larvae”, “army worm (Spodoptera frugiperda)” for “mustard beetle (Phaedon cochleariae)”, “caterpillars” for “beetle larvae”

[23] = system: peach aphids (Myzus persicae); assay: Myzus test; settings: active compound concentration of 1000 ppm; after 6 days; infested cabbage leaves dipped
Description: as §2, with “oleracea) which are heavily infested by the peach aphids (Myzus persicae)” for “oleracea)”, “concentration.” for “concentration and are populated with larvae of the mustard beetle (Phaedon cochleariae) while the leaves are still moist.”, “aphids” for “beetle larvae”

Wheat [24] = assay: Post-emergence test; settings: after three weeks
Description: as §1

white fly Bemisia tabaci = assay: Bemisia test; settings: active compound concentration of 1000 ppm; after 10 days; infested cotton plants dipped
Description: [table] To produce a suitable preparation of active compound, 1 part by weight of active compound is mixed with the stated amounts of solvent and emulsifier, and the concentrate is diluted with emulsifier-containing water to the desired concentrations. Cotton plants (Gossypium hirsutum) which are infested by eggs, larvae and pupae of the white fly Bemisia tabaci are dipped into a preparation of active compound of the desired concentration. After the desired period of time, the kill in % is determined. 100% means that all animals have been killed; 0% means that none of the animals have been killed.

Viola = assay: Post-emergence test; settings: 125 g ai/ha, after three weeks
Description: as §1

Solanum = assay: Post-emergence test; settings: 125 g ai/ha, after three weeks
Description: as §1

Cassia = assay: Post-emergence test; settings: 125 g ai/ha, after three weeks
Description: as §1

CCc1cc(C)c(C2=C(O)C3(CCC(C)CC3)NC2=O)c(CC)c1 (stereo not drawn) [Example I-1-a-2]
kill in % [1]: 100%
% damage Setaria (Setaria [2]; 125 g ai/ha): 95%
% damage Digitaria (Digitaria [3]; 125 g ai/ha): 80%
% damage Galium (Galium): 80%
% damage Oilseed rape (Oilseed rape): 0%
% damage Lolium (Lolium [4]; 125 g ai/ha): 70%
% damage Sugar beet (Sugar beet [5]; 125 g ai/ha): 0%
% damage Sorghum (Sorghum; 125 g ai/ha): 80%
kill in % [6]: 100%

CCc1cc(CC)c(C2=C(O)C3(CCC(C)CC3)NC2=O)c(CC)c1 (stereo not drawn) [Example I-1-a-5]
% damage Setaria (Setaria [2]; 125 g ai/ha): 100%
% damage Digitaria (Digitaria [3]; 125 g ai/ha): 90%
% damage Galium (Galium): 80%
% damage Soya bean (Soya bean [7]): 10%
% damage Sorghum (Sorghum; 125 g ai/ha): 95%
% damage Setaria (Setaria [8]; 60 g ai/ha): 100%
% damage Echinochloa (Echinochloa [9]): 100%
% damage Lolium (Lolium [10]; 60 g ai/ha): 100%
% damage Wheat (Wheat [11]): 0%
% damage Alopecurus (Alopecurus [12]; 60 g ai/ha): 100%
% damage Soya bean (Soya bean [13]; 60 g ai/ha): 0%
% damage Chenopodium (Chenopodium): 70%

CCc1cc(C)cc(C)c1C1=C(O)C(C)(C)NC1=O [Example I-1-a-8]
kill in % [1]: 100%
% damage Setaria (Setaria [2]; 60 g ai/ha): 100%
% damage Digitaria (Digitaria [3]; 60 g ai/ha): 95%
% damage Echinochloa (Echinochloa [14]): 100%
% damage Cotton (Cotton): 0%
% damage Sugar beet (Sugar beet [5]; 60 g ai/ha): 10%
% damage Sorghum (Sorghum; 60 g ai/ha): 95%
kill in % [15]: 100%
% damage Setaria (Setaria [8]; 60 g ai/ha): 100%
% damage Maize (Maize; 60 g ai/ha): 10%
% damage Lolium (Lolium [10]; 60 g ai/ha): 100%
% damage Wheat (Wheat [11]): 0%
% damage Sugar beet (Sugar beet [16]; 60 g ai/ha): 0%
% damage Alopecurus (Alopecurus [12]; 60 g ai/ha): 100%
% damage Soya bean (Soya bean [13]; 60 g ai/ha): 0%
% damage Avena fatua (Avena fatua [17]; 60 g ai/ha): 90%
% damage Bromus (Bromus; 60 g ai/ha): 100%

C#Cc1cc(C)c(C2=C(O)C3(CCC(OC)CC3)NC2=O)c(C)c1 (stereo not drawn) [Example I-1-a-21]
% damage Setaria (Setaria [2]; 125 g ai/ha): 99%
% damage Digitaria (Digitaria [3]; 125 g ai/ha): 100%
% damage Ipomoea (Ipomoea): 70%
% damage Lolium (Lolium [4]; 125 g ai/ha): 95%
% damage Sugar beet (Sugar beet [5]; 125 g ai/ha): 0%
% damage Alopecurus (Alopecurus [18]; 125 g ai/ha): 100%
% damage Avena fatua (Avena fatua [19]; 125 g ai/ha): 90%
kill in % [20]: 100%
% damage Setaria (Setaria [8]; 125 g ai/ha): 100%
% damage Veronica (Veronica): 100%
% damage Digitaria (Digitaria [21]): 100%
% damage Lolium (Lolium [10]; 125 g ai/ha): 100%
% damage Sugar beet (Sugar beet [16]; 125 g ai/ha): 0%
% damage Alopecurus (Alopecurus [12]; 125 g ai/ha): 100%
% damage Soya bean (Soya bean [13]; 125 g ai/ha): 0%
kill in % [6]: 100%

CCc1cc(C)cc(C)c1C1=C(O)C2(CCCCC2)OC1=O [Example I-2-a-3]
kill in % [22]: 100%
kill in % [6]: 100%

CCc1cc(C)cc(C)c1C1=C(O)C2(CCC(OC)CC2)OC1=O (stereo not drawn) [Example I-2-a-4]
kill in % [23]: 100%
kill in % [1]: 100%
% damage Lolium (Lolium [4]; 60 g ai/ha): 95%
% damage Cotton (Cotton): 0%
% damage Wheat (Wheat [24]; 60 g ai/ha): 0%
% damage Alopecurus (Alopecurus [18]; 60 g ai/ha): 95%
% damage Avena fatua (Avena fatua [19]; 60 g ai/ha): 80%
% damage Sorghum (Sorghum; 60 g ai/ha): 80%
kill in % (white fly Bemisia tabaci): 100%
kill in % [20]: 100%
% damage Setaria (Setaria [8]; 125 g ai/ha): 100%
% damage Maize (Maize; 125 g ai/ha): 5%
% damage Lolium (Lolium [10]; 125 g ai/ha): 100%
% damage Sugar beet (Sugar beet [16]; 125 g ai/ha): 0%
% damage Alopecurus (Alopecurus [12]; 125 g ai/ha): 100%
% damage Soya bean (Soya bean [13]; 125 g ai/ha): 0%
% damage Avena fatua (Avena fatua [17]; 125 g ai/ha): 80%
% damage Bromus (Bromus; 125 g ai/ha): 70%

CCc1cc(C)cc(C)c1C1=C(OC(=O)C(C)(C)C)C2(CCC(OC)CC2)OC1=O (stereo not drawn) [Example I-2-b-10]
% damage Viola (Viola): 90%
% damage Lolium (Lolium [4]; 125 g ai/ha): 80%
% damage Wheat (Wheat [24]; 125 g ai/ha): 10%
% damage Solanum (Solanum): 80%
% damage Cassia (Cassia): 95%
kill in % (white fly Bemisia tabaci): 100%
kill in % [20]: 100%
